Laboratory results from patent US20230348376A1 (TEIJIN PHARMA LIMITED, priority 2020, published 2023).

Molecular target: T1, human VDR (Homo sapiens, UniProt P11473)
T1 sequence (P11473 1-427): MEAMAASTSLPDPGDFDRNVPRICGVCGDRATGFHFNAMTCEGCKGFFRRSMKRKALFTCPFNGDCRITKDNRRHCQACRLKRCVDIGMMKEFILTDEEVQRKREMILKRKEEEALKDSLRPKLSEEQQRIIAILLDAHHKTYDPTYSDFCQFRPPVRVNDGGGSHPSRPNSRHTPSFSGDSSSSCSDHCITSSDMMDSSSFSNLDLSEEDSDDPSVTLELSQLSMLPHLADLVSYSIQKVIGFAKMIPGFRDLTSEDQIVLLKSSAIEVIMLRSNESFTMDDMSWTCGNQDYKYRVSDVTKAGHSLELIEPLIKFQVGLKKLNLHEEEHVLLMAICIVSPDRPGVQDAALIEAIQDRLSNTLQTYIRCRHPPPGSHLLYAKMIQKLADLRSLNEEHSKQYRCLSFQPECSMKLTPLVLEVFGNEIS
T1 sequence (P19793 1-462 partner): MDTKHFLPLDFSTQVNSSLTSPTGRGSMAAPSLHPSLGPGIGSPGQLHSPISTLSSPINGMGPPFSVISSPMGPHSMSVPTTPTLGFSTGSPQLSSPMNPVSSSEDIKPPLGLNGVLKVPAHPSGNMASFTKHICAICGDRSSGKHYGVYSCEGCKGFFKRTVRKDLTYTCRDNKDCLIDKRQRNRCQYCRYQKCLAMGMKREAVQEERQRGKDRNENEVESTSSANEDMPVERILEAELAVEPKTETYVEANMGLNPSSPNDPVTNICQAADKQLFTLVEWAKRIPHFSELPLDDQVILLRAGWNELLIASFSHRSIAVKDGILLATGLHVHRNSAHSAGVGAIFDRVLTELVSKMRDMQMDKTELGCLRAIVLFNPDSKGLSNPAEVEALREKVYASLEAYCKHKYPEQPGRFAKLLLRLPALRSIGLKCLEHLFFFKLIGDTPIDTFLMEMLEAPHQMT
Assay: Evaluation of VDR transcription activity in human osteoblasts (HOS cells), luciferase reporter
Details: Activity (EC50, VDR transcription activity), HOS cells transfected with human VDR, human RXRα and DR3 luciferase reporter; 21 hours

| SMILES | EC50 |
| --- | --- |
| C=C1[C@H](O)CC(=C/C=C2\CCC[C@]3(C)[C@@H]([C@@H](C)CN4CCC(C(C)(F)F)CC4)CC[C@@H]23)C[C@H]1O [Compound C057, (1R,3R)-5-(2-((1R,3aS,7aR,E)-1-((R)-1-(4-(1,1-difluoroethyl)piperidin-1-yl)propan-2-yl)-7a-methyloctahydro-4H-inden-4-ylidene)ethylidene)-2-methylenecyclohexane-1,3-diol] | 1 to 10 nM |
| C=C1/C(=C\C=C2/CCC[C@]3(C)[C@@H]([C@@H](C)CN4CCC(F)CC4)CC[C@@H]23)C[C@@H](O)C[C@@H]1O [Compound C058] | 10 to 100 nM |
| C=C1[C@H](O)CC(=C/C=C2\CCC[C@]3(C)[C@@H]([C@@H](C)CN4CCC(C(F)(F)F)CC4)CC[C@@H]23)C[C@H]1O [Compound C060, (1R,3R)-5-(2-((1R,3aS,7aR,E)-7a-methyl-1-((R)-1-(4-(trifluoromethyl)piperidin-1-yl)propan-2-yl)octahydro-4H-inden-4-ylidene)ethylidene)-2-methylenecyclohexane-1,3-diol] | 1 to 10 nM |
| C=C1[C@H](O)CC(=C/C=C2\CCC[C@]3(C)[C@@H]([C@H](C)CN4CCO[C@@H](C)C4)CC[C@@H]23)C[C@H]1O [Compound D010, (1R,3R)-5-(2-((1R,3aS,7aR,E)-7a-methyl-1-((S)-1-((S)-2-methylmorpholino)propan-2-yl)-octahydro-4H-inden-4-ylidene)ethylidene)-2-methylene-cyclohexane-1,3-diol] | 1 to 10 nM |
| C=C1[C@H](O)CC(=C/C=C2\CCC[C@]3(C)[C@@H]([C@H](C)CN4CCOC5(CC5)C4)CC[C@@H]23)C[C@H]1O [Compound D011, (1R,3R)-5-(2-((1R,3aS,7aR,E)-1-((S)-1-(4-oxa-7-azaspiro[2.5]octan-7-yl)propan-2-yl)-7a-methyloctahydro-4H-inden-4-ylidene)ethylidene)-2-methylenecyclohexane-1,3-diol] | 1 to 10 nM |
| C=C1[C@H](O)CC(=C/C=C2\CCC[C@]3(C)[C@@H]([C@H](C)CN4CCOC(C)(C)C4)CC[C@@H]23)C[C@H]1O [Compound D014, (1R,3R)-5-(2-((1R,3aS,7aR,E)-1-((S)-1-(2,2-dimethylmorpholino)propan-2-yl)-7a-methyloctahydro-4H-inden-4-ylidene)ethylidene)-2-methylenecyclohexane-1,3-diol] | 1 to 10 nM |
| C=C1[C@H](O)CC(=C/C=C2\CCC[C@]3(C)[C@@H]([C@H](C)CCN4C[C@@H](C)O[C@@H](C)C4)CC[C@@H]23)C[C@H]1O [Compound D028, (1R,3R)-5-(2-((1R,3aS,7aR,E)-1-((R)-4-((2S,6R)-2,6-dimethylmorpholino)butan-2-yl)-7a-methyloctahydro-4H-inden-4-ylidene)ethylidene)-2-methylenecyclohexane-1,3-diol] | 1 to 10 nM |
| C=C1[C@H](O)CC(=C/C=C2\CCC[C@]3(C)[C@@H]([C@H](C)CCN4CCO[C@H](C(F)F)C4)CC[C@@H]23)C[C@H]1O [Compound D033, (1R,3R)-5-(2-((1R,3aS,7aR,E)-1-((R)-4-((S)-2-(difluoromethyl)morpholino)butan-2-yl)-7a-methyloctahydro-4H-inden-4-ylidene)ethylidene)-2-methylenecyclohexane-1,3-diol] | 1 to 10 nM |
| C[C@H](CCN1CCO[C@H](C(F)F)C1)[C@H]1CC[C@H]2/C(=C/C=C3C[C@@H](O)C[C@H](O)C3)CCC[C@]12C [Compound D034, (1R,3R)-5-(2-((1R,3aS,7aR,E)-1-((R)-4-((S)-2-(difluoromethyl)morpholino)butan-2-yl)-7a-methyloctahydro-4H-inden-4-ylidene)ethylidene)cyclohexane-1,3-diol] | 10 to 100 nM |
| C=C1/C(=C\C=C2/CCC[C@]3(C)[C@@H]([C@H](C)CCN4CCO[C@H](C(F)F)C4)CC[C@@H]23)C[C@@H](O)C[C@@H]1O [Compound D035, (1R,3S,Z)-5-(2-((1R,3aS,7aR,E)-1-((R)-4-((S)-2-(difluoromethyl)morpholino)butan-2-yl)-7a-methyloctahydro-4H-inden-4-ylidene)ethylidene)-4-methyloctahydro-1,3-diol] | 10 to 100 nM |
| C=C1[C@H](O)CC(=C/C=C2\CCC[C@]3(C)[C@@H]([C@H](C)CCN4C[C@@H](C)OC[C@H]4C)CC[C@@H]23)C[C@H]1O [Compound D039, (1R,3R)-5-(2-((1R,3aS,7aR,E)-1-((R)-4-((2R,5R)-2,5-dimethylmorpholino)butan-2-yl)-7a-methyloctahydro-4H-inden-4-ylidene)ethylidene)-2-methylenecyclohexane-1,3-diol] | 1 to 10 nM |
| C=C1[C@H](O)CC(=C/C=C2\CCC[C@]3(C)[C@@H]([C@H](C)CCN4CCO[C@H](C)C4)CC[C@@H]23)C[C@H]1O [Compound D040, (1R,3R)-5-(2-((1R,3aS,7aR,E)-7a-methyl-1-((R)-4-((R)-2-methylmorpholino)butan-2-yl)octahydro-4H-inden-4-ylidene)ethylidene)-2-methylenecyclohexane-1,3-diol] | 1 to 10 nM |

Next, values leading:

| EC50 | SMILES |
| --- | --- |
| 10 to 100 nM | C=C1/C(=C\C=C2/CCC[C@]3(C)[C@@H]([C@H](C)CN4CCO[C@H](C(F)F)C4)CC[C@@H]23)C[C@@H](O)C[C@@H]1O [Compound D005, (1R,3S,Z)-5-(2-((1R,3aS,7aR,E)-1-((S)-1-((S)-2-(difluoromethyl)morpholino)propan-2-yl)-7a-methyloctahydro-4H-inden-4-ylidene)ethylidene)-4-methylenecyclohexane-1,3-diol] |
| 10 to 100 nM | C=C1/C(=C\C=C2/CCC[C@]3(C)[C@@H]([C@H](C)CN4CCO[C@@H](C(F)F)C4)CC[C@@H]23)C[C@@H](O)C[C@@H]1O [Compound D006, (1R,3S,Z)-5-(2-((1R,3aS,7aR,E)-1-((S)-1-((R)-2-(difluoromethyl)morpholino)propan-2-yl)-7a-methyloctahydro-4H-inden-4-ylidene)ethylidene)-4-methylenecyclohexane-1,3-diol] |
| 10 to 100 nM | C=C1[C@H](O)CC(=C/C=C2\CCC[C@]3(C)[C@@H]([C@H](C)CN4CCOC[C@@H]4C)CC[C@@H]23)C[C@H]1O [Compound D015, (1R,3R)-5-(2-((1R,3aS,7aR,E)-7a-methyl-1-((S)-1-((S)-3-methylmorpholino)propan-2-yl)octahydro-4H-inden-4-ylidene)ethylidene)-2-methylenecyclohexane-1,3-diol] |
| 10 to 100 nM | C=C1/C(=C\C=C2/CCC[C@]3(C)[C@@H]([C@H](C)CCN4CCOCC4)CC[C@@H]23)C[C@@H](O)C[C@@H]1O [Compound D022, (1R,3S,Z)-5-(2-((1R,3aS,7aR,E)-7a-methyl-1-((R)-4-morpholinobutan-2-yl)octahydro-4H-inden-4-ylidene)ethylidene)-4-methylenecyclohexane-1,3-diol] |
| 1 to 10 nM | C=C1[C@H](O)CC(=C/C=C2\CCC[C@]3(C)[C@@H]([C@H](C)CCN4CCO[C@@H](C(F)F)C4)CC[C@@H]23)C[C@H]1O [Compound D036, (1R,3R)-5-(2-((1R,3aS,7aR,E)-1-((R)-4-((R)-2-(difluoromethyl)morpholino)butan-2-yl)-7a-methyloctahydro-4H-inden-4-ylidene)ethylidene)-2-methylenecyclohexane-1,3-diol] |
| 100 to 1000 nM | C[C@H](CCN1CCOCC1(C)C)[C@H]1CC[C@H]2/C(=C/C=C3C[C@@H](O)C[C@H](O)C3)CCC[C@]12C [Compound D049, (1R,3R)-5-(2-((1R,3aS,7aR,E)-1-((R)-4-(3,3-dimethylmorpholino)butan-2-yl)-7a-methyloctahydro-4H-inden-4-ylidene)ethylidene)cyclohexane-1,3-diol] |
